Key:
[1] = Radioactivity distribution in mouse body after intravenous administration of radioiodine labeled forms; conditions: for Distribution of radioactivity, Blood / Distribution of radioactivity, Brain / Distribution of radioactivity, Heart / Distribution of radioactivity, Intestine / Distribution of radioactivity, Kidney / Distribution of radioactivity, Liver / Distribution of radioactivity, Spleen: mouse, intravenous administration, mean (SD) of 3 to 5 mice
Procedure: Thereafter, 100 μl (0.5 to 1 μCi) of each labeled form was intravenously administered to each group consisting of three to five 5-week-old ddY male mice (25 to 30 g). 2, 10, 30, and 60 minutes after the intravenous administration, such mice were decapitated, and blood was collected. Thereafter, organs were excised, and the weight and radioactivity thereof were then measured.

[2] = target: T1, Aβ(1-40) aggregates (Homo sapiens, UniProt P05067); assay: In vitro binding of [125I]-labelled compounds to Aβ aggregates (filtration, radioactivity on filter); conditions: [125I]-labelled compound; radioactivity remaining on filter in presence vs absence of Aβ aggregates
T1 construct: The amyloid β protein (Human, 1-40) [HCl form]; purchased Peptide Institute, Inc
Procedure: Aβ aggregates was dissolved in a buffer (pH 7.4) that contained 10 mM sodium phosphate and 1 mM EDTA, resulting in a concentration of 0.5 mg/ml. Thereafter, the obtained solution was incubated at 37° C. for 36 to 42 hours. A binding experiment was carried out using 12×75 mm borosilicate glass tubes. […] The obtained mixture was left at room temperature for 3 hours. Non-specific bond was calculated using nonradioactive compound 11 (1 μM). […] The radioactivity of a substance remaining in the filter used in filtration was measured with a γ counter. With regard to [^125I] compound 11, the Kd value thereof was calculated by the Scatchard analysis. In addition, using [^125I] compound 11 as a radioactive ligand, an inhibition experiment was carried out by the following method using the Aβ(1-40) aggregates and the Aβ(1-42) aggregates. […] The obtained mixture was left at room temperature for 3 hours. Non-specific bond was calculated using nonradioactive compound 11 (1 μM). The 50% inhibitory concentration was calculated using GraphPad Prism (GraphPad Software), and the inhibition constant (Ki value) was calculated according to the formula of Cheng-Prusoff, Ki=IC50/(1+[L]/Kd). In this formula, [L] represents the concentration of [^125I] compound 11, and Kd represents the dissociation constant of [^125I] compound 11 to the Aβ(1-40) aggregates and the Aβ(1-42) aggregates.

[3] = normal mice, intravenous, [125I]-labelled form

T1 sequence (P05067 672-711 limits assumed): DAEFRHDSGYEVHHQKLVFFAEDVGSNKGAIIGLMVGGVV

| Structure (SMILES) | Distribution of radioactivity, Blood ([1]; 2 min after administration) | Distribution of radioactivity, Blood ([1]; 10 min after administration) | Distribution of radioactivity, Blood ([1]; 30 min after administration) | Distribution of radioactivity, Blood ([1]; 60 min after administration) | Distribution of radioactivity, Brain ([1]; 2 min after administration) | Distribution of radioactivity, Brain ([1]; 10 min after administration) | Distribution of radioactivity, Brain ([1]; 30 min after administration) | Distribution of radioactivity, Brain ([1]; 60 min after administration) | Distribution of radioactivity, Heart ([1]; 2 min after administration) | Distribution of radioactivity, Heart ([1]; 10 min after administration) | Distribution of radioactivity, Heart ([1]; 30 min after administration) | Distribution of radioactivity, Heart ([1]; 60 min after administration) | Distribution of radioactivity, Intestine ([1]; 2 min after administration) | Distribution of radioactivity, Intestine ([1]; 10 min after administration) | Distribution of radioactivity, Intestine ([1]; 30 min after administration) | Distribution of radioactivity, Intestine ([1]; 60 min after administration) | Distribution of radioactivity, Kidney ([1]; 2 min after administration) | Distribution of radioactivity, Kidney ([1]; 10 min after administration) | Distribution of radioactivity, Kidney ([1]; 30 min after administration) | bindability to the Aβ aggregates [2] | also measured |
| --- | --- | --- | --- | --- | --- | --- | --- | --- | --- | --- | --- | --- | --- | --- | --- | --- | --- | --- | --- | --- | --- |
| Nc1ccc(C=Cc2cc(=O)c3cc([125I])ccc3o2)cc1 [[125I]Compound 46] | 2.34 (0.16) % ID/g | 2.44 (0.19) % ID/g | 2.56 (0.64) % ID/g | 2.27 (0.47) % ID/g | 4.88 (0.47) % ID/g | 4.40 (0.44) % ID/g | 2.78 (0.72) % ID/g | 1.62 (0.40) % ID/g | 8.40 (0.47) % ID/g | 3.78 (0.35) % ID/g | 2.43 (0.70) % ID/g | 1.64 (0.29) % ID/g | 2.84 (0.18) % ID/g | 5.51 (0.55) % ID/g | 11.71 (1.27) % ID/g | 16.08 (2.44) % ID/g | 11.94 (1.49) % ID/g | 6.99 (0.91) % ID/g | 4.91 (1.07) % ID/g | – | Distribution of radioactivity, Kidney ([1]; 60 min after administration): 3.76 (0.91) % ID/g; Distribution of radioactivity, Liver ([1]; 2 min after administration): 13.23 (1.65) % ID/g; Distribution of radioactivity, Liver ([1]; 10 min after administration): 14.49 (1.10) % ID/g; Distribution of radioactivity, Liver ([1]; 30 min after administration): 10.27 (1.84) % ID/g; Distribution of radioactivity, Liver ([1]; 60 min after administration): 8.16 (1.33) % ID/g; Distribution of radioactivity, Spleen ([1]; 2 min after administration): 4.23 (0.62) % ID/g; Distribution of radioactivity, Spleen ([1]; 10 min after administration): 3.64 (0.38) % ID/g; Distribution of radioactivity, Spleen ([1]; 30 min after administration): 2.92 (0.73) % ID/g; Distribution of radioactivity, Spleen ([1]; 60 min after administration): 2.16 (0.85) % ID/g |
| CNc1ccc(C=Cc2cc(=O)c3cc([125I])ccc3o2)cc1 [[125I]Compound 47] | 3.21 (0.38) % ID/g | 2.44 (0.082) % ID/g | 2.19 (0.29) % ID/g | 1.79 (0.23) % ID/g | 2.84 (0.35) % ID/g | 2.96 (0.25) % ID/g | 1.86 (0.30) % ID/g | 0.99 (0.09) % ID/g | 6.92 (1.41) % ID/g | 3.31 (0.69) % ID/g | 2.09 (0.39) % ID/g | 1.47 (0.27) % ID/g | 2.59 (0.38) % ID/g | 8.55 (1.21) % ID/g | 16.72 (2.58) % ID/g | 19.16 (2.63) % ID/g | 10.41 (1.33) % ID/g | 7.05 (0.56) % ID/g | 5.48 (0.97) % ID/g | – | Distribution of radioactivity, Kidney ([1]; 60 min after administration): 3.52 (1.36) % ID/g; Distribution of radioactivity, Liver ([1]; 2 min after administration): 14.55 (2.64) % ID/g; Distribution of radioactivity, Liver ([1]; 10 min after administration): 14.41 (2.52) % ID/g; Distribution of radioactivity, Liver ([1]; 30 min after administration): 11.13 (1.63) % ID/g; Distribution of radioactivity, Liver ([1]; 60 min after administration): 7.82 (0.94) % ID/g; Distribution of radioactivity, Spleen ([1]; 2 min after administration): 3.88 (0.74) % ID/g; Distribution of radioactivity, Spleen ([1]; 10 min after administration): 4.42 (1.05) % ID/g; Distribution of radioactivity, Spleen ([1]; 30 min after administration): 2.66 (0.47) % ID/g; Distribution of radioactivity, Spleen ([1]; 60 min after administration): 1.51 (0.19) % ID/g |
| CN(C)c1ccc(C=Cc2cc(=O)c3cc([125I])ccc3o2)cc1 [[125I]Compound 48] | 14.54 (3.37) % ID/g | 3.50 (1.13) % ID/g | 1.5 (0.22) % ID/g | 0.80 (0.21) % ID/g | 0.70 (0.10) % ID/g | 0.72 (0.14) % ID/g | 1.02 (0.23) % ID/g | 0.77 (0.25) % ID/g | 8.89 (1.94) % ID/g | 4.00 (0.93) % ID/g | 2.36 (0.51) % ID/g | 1.42 (0.38) % ID/g | 1.52 (0.09) % ID/g | 4.8 (0.74) % ID/g | 11.98 (1.26) % ID/g | 14.91 (4.18) % ID/g | 9.04 (1.72) % ID/g | 5.58 (1.07) % ID/g | 5.16 (1.06) % ID/g | – | Distribution of radioactivity, Kidney ([1]; 60 min after administration): 3.94 (1.25) % ID/g; Distribution of radioactivity, Liver ([1]; 2 min after administration): 20.56 (3.98) % ID/g; Distribution of radioactivity, Liver ([1]; 10 min after administration): 15.09 (2.63) % ID/g; Distribution of radioactivity, Liver ([1]; 30 min after administration): 12.82 (1.96) % ID/g; Distribution of radioactivity, Liver ([1]; 60 min after administration): 8.79 (1.80) % ID/g; Distribution of radioactivity, Spleen ([1]; 2 min after administration): 5.09 (0.75) % ID/g; Distribution of radioactivity, Spleen ([1]; 10 min after administration): 4.06 (0.66) % ID/g; Distribution of radioactivity, Spleen ([1]; 30 min after administration): 3.15 (0.70) % ID/g; Distribution of radioactivity, Spleen ([1]; 60 min after administration): 2.82 (0.36) % ID/g |
| COc1cc(/C=C/C(=O)c2cccc(I)c2)ccc1O [compound 31, (E)-3-(4-hydroxy-3-methoxyphenyl)-1-(3-iodophenyl)propan-2-en-1-one] | – | – | – | – | – | – | – | – | – | – | – | – | – | – | – | – | – | – | – | high binding affinity | ability to transfer to the brain (in words) [1, 3]: transfers to the brain; washing out / disappearance of radioactivity from the brain [1, 3]: washed out rapidly |
| CN(C)c1ccc(/C=C/C(=O)c2ccc(I)cc2)cc1 [compound 36, (E)-3-(4-(dimethylamino)phenyl)-1-(4-iodophenyl)propan-2-en-1-one] | – | – | – | – | – | – | – | – | – | – | – | – | – | – | – | – | – | – | – | high binding affinity | – |
| Nc1ccc(C=Cc2cc(=O)c3cc(I)ccc3o2)cc1 [compound 46, 6-iodo-4′-aminostyrylchromone] | – | – | – | – | – | – | – | – | – | – | – | – | – | – | – | – | – | – | – | high binding affinity | ability to transfer to the brain [1, 3]: 4.9 % ID/g; washing out / disappearance of radioactivity from the brain [1, 3]: rapid disappearance of radioactivity |
| CNc1ccc(C=Cc2cc(=O)c3cc(I)ccc3o2)cc1 [compound 47, 6-iodo-4′-methylaminostyrylchromone] | – | – | – | – | – | – | – | – | – | – | – | – | – | – | – | – | – | – | – | high binding affinity | ability to transfer to the brain [1, 3]: 3.0 % ID/g; washing out / disappearance of radioactivity from the brain [1, 3]: rapid disappearance of radioactivity |
| CN(C)c1ccc(C=Cc2cc(=O)c3cc(I)ccc3o2)cc1 [compound 48, 6-iodo-4′-dimethylaminostyrylchromone] | – | – | – | – | – | – | – | – | – | – | – | – | – | – | – | – | – | – | – | high binding affinity | ability to transfer to the brain (in words) [1, 3]: low; radioactivity retention in the blood [1, 3]: high radioactivity retention ability in the blood |
